Measurements reported in the supplement of paper PMC10307832.

Tests used:
Test in all cases: relative viability (nuclei count vs DMSO), 5 days (fraction); higher = more cells survive
NCI-H1755 = test system: NCI-H1755
In short: (§1)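 A single step with final 0.05% Triton X-100, 1% formaldehyde and 1 ug/ml Hoechst fixed the cells and stained nuclei 5 days after treatment. Lung cancer cell lines in 1536-well plates had been treated by pin tool the day after seeding with one drug alone or a fixed anchor-drug dose plus five library-drug doses (not always all listed) in √10 steps, and nuclei were counted on 4× images. Relative viability is the ratio of nuclei in treated wells to nuclei in vehicle wells, taken as the median of duplicate plates.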

PC-14 = test system: PC-14
In short: as §1

SK-MES-1 = test system: SK-MES-1
In short: as §1

NCI-H661 = test system: NCI-H661
In short: as §1

NCI-H441 = test system: NCI-H441
In short: as §1

NCI-H1792 = test system: NCI-H1792
In short: as §1

NCI-H596 = test system: NCI-H596
In short: as §1

LXF-289 = test system: LXF-289
In short: as §1

NCI-H1915 = test system: NCI-H1915
In short: as §1

NCI-H322M = test system: NCI-H322M
In short: as §1

NCI-H460 = test system: NCI-H460
In short: as §1

NCI-H1651 = test system: NCI-H1651
In short: as §1

NCI-H1563 = test system: NCI-H1563
In short: as §1

NCI-H520 = test system: NCI-H520
In short: as §1

NCI-H3122 = test system: NCI-H3122
In short: as §1

SW 900 = test system: SW 900
In short: as §1

LCLC-103H = test system: LCLC-103H
In short: as §1

NCI-H1355 = test system: NCI-H1355
In short: as §1

NCI-H2347 = test system: NCI-H2347
In short: as §1

RERF-LC-KJ = test system: RERF-LC-KJ
In short: as §1

NCI-H522 = test system: NCI-H522
In short: as §1

Structure (SMILES): Cc1sc2c(c1C)C(c1ccc(Cl)cc1)=N[C@@H](CC(=O)OC(C)(C)C)c1nnc(C)n1-2 [JQ1] + Nc1nc2[nH]cc(CCc3ccc(C(=O)N[C@@H](CCC(=O)O)C(=O)O)cc3)c2c(=O)[nH]1 [Pemetrexed] (partner 0.2 µM)
- relative viability (NCI-H1755; first compound 0.04 µM): 0.444
- relative viability (NCI-H1755; first compound 0.1265 µM): 0.444
- relative viability (NCI-H1755; first compound 0.4 µM): 0.387
- relative viability (NCI-H1755; first compound 1.265 µM): 0.323
- relative viability (NCI-H1755; first compound 4 µM): 0.324
- relative viability (PC-14; first compound 0.04 µM): 0.12
- relative viability (PC-14; first compound 0.1265 µM): 0.148
- relative viability (PC-14; first compound 0.4 µM): 0.105
- relative viability (PC-14; first compound 1.265 µM): 0.136
- relative viability (PC-14; first compound 4 µM): 0.133
- relative viability (SK-MES-1; first compound 0.04 µM): 0.967
- relative viability (SK-MES-1; first compound 0.1265 µM): 0.686
- relative viability (SK-MES-1; first compound 0.4 µM): 0.397
- relative viability (SK-MES-1; first compound 1.265 µM): 0.289
- relative viability (SK-MES-1; first compound 4 µM): 0.235
- relative viability (NCI-H661; first compound 0.04 µM): 0.914
- relative viability (NCI-H661; first compound 0.1265 µM): 0.876
- relative viability (NCI-H661; first compound 0.4 µM): 0.916
- relative viability (NCI-H661; first compound 1.265 µM): 0.482
- relative viability (NCI-H661; first compound 4 µM): 0.423
- relative viability (NCI-H441; first compound 0.04 µM): 0.271
- relative viability (NCI-H441; first compound 0.1265 µM): 0.263
- relative viability (NCI-H441; first compound 0.4 µM): 0.273
- relative viability (NCI-H441; first compound 1.265 µM): 0.213
- relative viability (NCI-H441; first compound 4 µM): 0.186
- relative viability (NCI-H1792; first compound 0.04 µM): 0.705
- relative viability (NCI-H1792; first compound 0.1265 µM): 0.699
- relative viability (NCI-H1792; first compound 0.4 µM): 0.434
- relative viability (NCI-H1792; first compound 1.265 µM): 0.15
- relative viability (NCI-H1792; first compound 4 µM): 0.0524
- relative viability (NCI-H596; first compound 0.04 µM): 0.491
- relative viability (NCI-H596; first compound 0.1265 µM): 0.461
- relative viability (NCI-H596; first compound 0.4 µM): 0.386
- relative viability (NCI-H596; first compound 1.265 µM): 0.335
- relative viability (NCI-H596; first compound 4 µM): 0.367
- relative viability (LXF-289; first compound 0.04 µM): 0.915
- relative viability (LXF-289; first compound 0.1265 µM): 0.808
- relative viability (LXF-289; first compound 0.4 µM): 0.867
- relative viability (LXF-289; first compound 1.265 µM): 0.59
- relative viability (LXF-289; first compound 4 µM): 0.541
- relative viability (NCI-H1915; first compound 0.04 µM): 0.46
- relative viability (NCI-H1915; first compound 0.4 µM): 0.323
- relative viability (NCI-H1915; first compound 1.265 µM): 0.295
- relative viability (NCI-H1915; first compound 4 µM): 0.167
- relative viability (NCI-H322M; first compound 0.04 µM): 0.625
- relative viability (NCI-H322M; first compound 0.1265 µM): 0.648
- relative viability (NCI-H322M; first compound 0.4 µM): 0.515
- relative viability (NCI-H322M; first compound 1.265 µM): 0.495
- relative viability (NCI-H322M; first compound 4 µM): 0.381
- relative viability (NCI-H460; first compound 0.04 µM): 0.0603
- relative viability (NCI-H460; first compound 0.1265 µM): 0.0567
- relative viability (NCI-H460; first compound 0.4 µM): 0.0624
- relative viability (NCI-H460; first compound 1.265 µM): 0.0611
- relative viability (NCI-H460; first compound 4 µM): 0.07
- relative viability (NCI-H1651; first compound 0.04 µM): 0.589
- relative viability (NCI-H1651; first compound 0.1265 µM): 0.45
- relative viability (NCI-H1651; first compound 0.4 µM): 0.391
- relative viability (NCI-H1651; first compound 1.265 µM): 0.458
- relative viability (NCI-H1651; first compound 4 µM): 0.358
- relative viability (NCI-H1563; first compound 0.04 µM): 0.698
- relative viability (NCI-H1563; first compound 0.1265 µM): 0.715
- relative viability (NCI-H1563; first compound 0.4 µM): 0.673
- relative viability (NCI-H1563; first compound 1.265 µM): 0.47
- relative viability (NCI-H1563; first compound 4 µM): 0.491
- relative viability (NCI-H520; first compound 0.04 µM): 0.565
- relative viability (NCI-H520; first compound 0.1265 µM): 0.536
- relative viability (NCI-H520; first compound 0.4 µM): 0.491
- relative viability (NCI-H520; first compound 1.265 µM): 0.307
- relative viability (NCI-H520; first compound 4 µM): 0.195
- relative viability (NCI-H3122; first compound 0.04 µM): 0.193
- relative viability (NCI-H3122; first compound 0.1265 µM): 0.16
- relative viability (NCI-H3122; first compound 0.4 µM): 0.186
- relative viability (NCI-H3122; first compound 1.265 µM): 0.118
- relative viability (NCI-H3122; first compound 4 µM): 0.12
- relative viability (SW 900; first compound 0.04 µM): 0.472
- relative viability (SW 900; first compound 0.1265 µM): 0.477
- relative viability (SW 900; first compound 0.4 µM): 0.349
- relative viability (SW 900; first compound 1.265 µM): 0.19
- relative viability (SW 900; first compound 4 µM): 0.195
- relative viability (LCLC-103H; first compound 0.04 µM): 0.44
- relative viability (LCLC-103H; first compound 0.1265 µM): 0.385
- relative viability (LCLC-103H; first compound 0.4 µM): 0.393
- relative viability (LCLC-103H; first compound 1.265 µM): 0.359
- relative viability (LCLC-103H; first compound 4 µM): 0.437
- relative viability (NCI-H1355; first compound 0.04 µM): 1.05
- relative viability (NCI-H1355; first compound 0.1265 µM): 1.04
- relative viability (NCI-H1355; first compound 0.4 µM): 1.07
- relative viability (NCI-H1355; first compound 1.265 µM): 0.893
- relative viability (NCI-H1355; first compound 4 µM): 0.718
- relative viability (NCI-H2347; first compound 0.04 µM): 0.468
- relative viability (NCI-H2347; first compound 0.1265 µM): 0.423
- relative viability (NCI-H2347; first compound 0.4 µM): 0.403
- relative viability (NCI-H2347; first compound 1.265 µM): 0.405
- relative viability (NCI-H2347; first compound 4 µM): 0.357
- relative viability (RERF-LC-KJ; first compound 0.04 µM): 0.487
- relative viability (RERF-LC-KJ; first compound 0.1265 µM): 0.481
- relative viability (RERF-LC-KJ; first compound 0.4 µM): 0.46
- relative viability (RERF-LC-KJ; first compound 1.265 µM): 0.33
- relative viability (RERF-LC-KJ; first compound 4 µM): 0.275
- relative viability (NCI-H522; first compound 0.04 µM): 0.929
- relative viability (NCI-H522; first compound 0.1265 µM): 0.877
- relative viability (NCI-H522; first compound 0.4 µM): 0.54
- relative viability (NCI-H522; first compound 1.265 µM): 0.59
- relative viability (NCI-H522; first compound 4 µM): 0.444
